Test results from ChEMBL document CHEMBL1144613, “Substituted acyclic sulfonamides as human cannabinoid-1 receptor inverse agonists” (Bioorg Med Chem Lett, 2007).

How the values were obtained:
Cannabinoid receptor 2 = Cannabinoid receptor 2 (Homo sapiens, UniProt P34972); assay: Displacement of [3H]CP-55940 from human recombinant CB2 receptor expressed in CHO cells; assay type: cell-based
Cannabinoid receptor 1 [1] = biological target: Cannabinoid receptor 1 (Homo sapiens, UniProt P21554); assay: biochemical; assay type: cell-based, CHO
Cannabinoid receptor 1 (Homo sapiens, UniProt P21554), sequence (P21554 whole entry): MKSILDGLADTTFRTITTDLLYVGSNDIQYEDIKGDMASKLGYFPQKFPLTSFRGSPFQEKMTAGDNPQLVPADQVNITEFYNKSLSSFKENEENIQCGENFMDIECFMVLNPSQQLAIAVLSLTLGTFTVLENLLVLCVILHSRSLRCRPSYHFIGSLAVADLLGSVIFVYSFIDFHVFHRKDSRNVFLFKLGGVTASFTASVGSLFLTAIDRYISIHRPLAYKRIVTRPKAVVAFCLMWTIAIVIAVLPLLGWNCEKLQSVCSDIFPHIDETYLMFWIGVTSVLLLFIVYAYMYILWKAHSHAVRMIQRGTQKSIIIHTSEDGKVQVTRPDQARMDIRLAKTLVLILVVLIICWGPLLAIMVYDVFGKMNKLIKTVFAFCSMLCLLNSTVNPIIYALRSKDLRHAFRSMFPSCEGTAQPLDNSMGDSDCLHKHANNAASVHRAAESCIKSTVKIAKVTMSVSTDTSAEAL

[2] = Brain concentration in rat at 1 mg/kg, iv at 0.25 h; assay type: ADME, organism-based; design: dose 1 mg/kg, route intravenous; settings: read-out: Activity
[3] = Brain concentration in rat at 1 mg/kg, iv at 1 h; assay type: ADME, organism-based; design: dose 1 mg/kg, route intravenous; settings: read-out: Activity
[4] = Volume of distribution at steady state in rat at 1 mg/kg, iv or 2 mg/kg, po; assay type: ADME, organism-based; settings: in vivo, read-out: Vdss
[5] = Half life in rat at 1 mg/kg, iv or 2 mg/kg, po; assay type: ADME, organism-based; settings: in vivo
[6] = Oral bioavailability in rat at 1 mg/kg, iv or 2 mg/kg, po; assay type: ADME, organism-based; settings: in vivo
[7] = Plasma clearance in rat at 1 mg/kg, iv or 2 mg/kg, po; assay type: ADME, organism-based
[8] = Cmax in rat at 1 mg/kg, iv or 2 mg/kg, po; assay type: ADME, organism-based; settings: in vivo
[9] = Plasma concentration in rat at 1 mg/kg, iv at 0.25 h; assay type: ADME, organism-based; design: dose 1 mg/kg, route intravenous
[10] = Plasma concentration in rat at 1 mg/kg, iv at 1 h; assay type: ADME, organism-based; design: dose 1 mg/kg, route intravenous
[11] = Plasma concentration in rat at 1 mg/kg, iv at 2 hrs; assay type: ADME, organism-based; design: dose 1 mg/kg, route intravenous
[12] = Brain concentration in rat at 1 mg/kg, iv at 2 hrs; assay type: ADME, organism-based; design: dose 1 mg/kg, route intravenous; settings: read-out: Activity
[13] = Ratio of drug level in brain to plasma in rat at 1 mg/kg, iv at 0.25 h; assay type: ADME, organism-based; design: dose 1 mg/kg, route intravenous
[14] = Ratio of drug level in brain to plasma in rat at 1 mg/kg, iv at 1 h; assay type: ADME, organism-based; design: dose 1 mg/kg, route intravenous
[15] = Ratio of drug level in brain to plasma in rat at 1 mg/kg, iv at 2 hrs; assay type: ADME, organism-based; design: dose 1 mg/kg, route intravenous
Rattus norvegicus = assay: Inhibition of CP-55940-induced hypothermia in rat at 3 mg/kg, iv after 30 mins; assay type: functional; settings: 0.5 h
Cannabinoid receptor 1 [16] = biological target: Cannabinoid receptor 1 (Rattus norvegicus, UniProt P20272); assay: Binding affinity at rat CB1 receptor
Cannabinoid receptor 1 (Rattus norvegicus, UniProt P20272), sequence (P20272 whole entry): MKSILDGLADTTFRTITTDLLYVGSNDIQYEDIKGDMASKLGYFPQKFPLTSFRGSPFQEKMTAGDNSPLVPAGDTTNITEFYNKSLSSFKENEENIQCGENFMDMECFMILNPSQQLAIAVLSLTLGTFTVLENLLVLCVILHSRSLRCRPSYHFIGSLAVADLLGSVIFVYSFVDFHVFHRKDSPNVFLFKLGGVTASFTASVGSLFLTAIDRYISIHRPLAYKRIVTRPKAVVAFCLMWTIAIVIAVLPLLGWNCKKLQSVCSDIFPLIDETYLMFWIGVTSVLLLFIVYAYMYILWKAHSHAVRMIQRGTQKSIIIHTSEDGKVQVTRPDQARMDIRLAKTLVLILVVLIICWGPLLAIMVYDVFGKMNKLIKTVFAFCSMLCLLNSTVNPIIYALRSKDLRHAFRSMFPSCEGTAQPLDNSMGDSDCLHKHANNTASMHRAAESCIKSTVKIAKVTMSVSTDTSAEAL

Cannabinoid receptor 2, sequence (P34972 whole entry): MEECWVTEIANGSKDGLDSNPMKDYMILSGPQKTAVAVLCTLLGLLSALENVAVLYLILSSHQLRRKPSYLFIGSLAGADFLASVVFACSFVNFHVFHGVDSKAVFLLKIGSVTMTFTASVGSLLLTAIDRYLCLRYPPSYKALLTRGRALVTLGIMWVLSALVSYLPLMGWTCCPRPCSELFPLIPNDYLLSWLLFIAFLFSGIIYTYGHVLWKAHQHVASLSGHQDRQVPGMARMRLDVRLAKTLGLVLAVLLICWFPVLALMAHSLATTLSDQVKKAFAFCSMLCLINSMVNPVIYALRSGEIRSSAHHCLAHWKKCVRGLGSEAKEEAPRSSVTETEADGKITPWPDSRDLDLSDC

IC50 (Cannabinoid receptor 2) [nM] | IC50 (Cannabinoid receptor 1 [1]) [nM] | SMILES | other results
202 | 10.7 | C[C@H](NS(=O)(=O)c1cccc(Cl)c1Cl)[C@@H](Cc1ccc(Cl)cc1)c1cccc(C#N)c1 | 
181 | 282 | C[C@H](NC(=O)c1cc(Cl)cc(Cl)c1)[C@@H](Cc1ccc(Cl)cc1)c1cccc(C#N)c1 | 
1440 | 75.2 | CCCCS(=O)(=O)N[C@@H](C)[C@@H](Cc1ccc(Cl)cc1)c1cccc(C#N)c1 | 
> 2000 | 1680 | C[C@H](NS(=O)(=O)C(C)(C)C)[C@@H](Cc1ccc(Cl)cc1)c1cccc(C#N)c1 | 
945 | 37.2 | C[C@H](NC(=O)c1c(Cl)cccc1Cl)[C@@H](Cc1ccc(Cl)cc1)c1cccc(C#N)c1 | 
> 2000 | 44.1 | C[C@H](NC(=O)Cc1ccccc1)[C@@H](Cc1ccc(Cl)cc1)c1cccc(C#N)c1 | 
283 | 29.8 | C[C@H](NS(=O)(=O)c1c(Cl)cccc1Cl)[C@@H](Cc1ccc(Cl)cc1)c1cccc(C#N)c1 | 
998 | 11.4 | C[C@H](NS(=O)(=O)c1cc(Cl)cc(Cl)c1)[C@@H](Cc1ccc(Cl)cc1)c1cccc(C#N)c1 | 
668 | 12.3 | C[C@H](NS(=O)(=O)c1ccccc1Cl)[C@@H](Cc1ccc(Cl)cc1)c1cccc(C#N)c1 | 
1760 | 3.2 | C[C@H](NS(=O)(=O)c1cc(C(F)(F)F)cc(C(F)(F)F)c1)[C@@H](Cc1ccc(Cl)cc1)c1cccc(C#N)c1 | 
1080 | 5.1 | C[C@H](NS(=O)(=O)c1cc(F)cc(F)c1)[C@@H](Cc1ccc(Cl)cc1)c1cccc(C#N)c1 | 
808 | 13.9 | C[C@H](NS(=O)(=O)c1cccc(Cl)c1)[C@@H](Cc1ccc(Cl)cc1)c1cccc(C#N)c1 | 
406 | 23 | C[C@H](NS(=O)(=O)c1ccc(-c2ccccc2)cc1)[C@@H](Cc1ccc(Cl)cc1)c1cccc(C#N)c1 | 
1120 | 21.1 | C[C@H](NS(=O)(=O)c1cccc2ccccc12)[C@@H](Cc1ccc(Cl)cc1)c1cccc(C#N)c1 | 
301 | 7.1 | C[C@H](NS(=O)(=O)c1ccc(Cl)cc1Cl)[C@@H](Cc1ccc(Cl)cc1)c1cccc(C#N)c1 | 
> 2000 | 20.9 | C[C@H](NS(=O)(=O)Cc1ccccc1)[C@@H](Cc1ccc(Cl)cc1)c1cccc(C#N)c1 | 
1920 | 16 | C[C@H](NS(=O)(=O)Cc1ccccc1Cl)[C@@H](Cc1ccc(Cl)cc1)c1cccc(C#N)c1 | 
1760 | 15.4 | C[C@H](NS(=O)(=O)Cc1ccc(Cl)cc1)[C@@H](Cc1ccc(Cl)cc1)c1cccc(C#N)c1 | 
904 | 19.3 | C[C@H](NS(=O)(=O)CCc1ccccc1)[C@@H](Cc1ccc(Cl)cc1)c1cccc(C#N)c1 | 
1370 | 38.3 | C[C@H](NC(=O)CCc1ccccc1)[C@@H](Cc1ccc(Cl)cc1)c1cccc(C#N)c1 | 
1080 | 41.8 | C[C@H](NS(=O)(=O)/C=C/c1ccccc1)[C@@H](Cc1ccc(Cl)cc1)c1cccc(C#N)c1 | 
1910 | 845 | C[C@H](NC(=O)c1ccccc1)[C@@H](Cc1ccc(Cl)cc1)c1cccc(C#N)c1 | 
498 | 7.4 | C[C@H](NS(=O)(=O)c1cc(Cl)ccc1Cl)[C@@H](Cc1ccc(Cl)cc1)c1cccc(C#N)c1 | 
1090 | 15 | C[C@H](NS(=O)(=O)c1ccc2ccccc2c1)[C@@H](Cc1ccc(Cl)cc1)c1cccc(C#N)c1 | 
2000 | 53.5 | C[C@H](NS(=O)(=O)Cc1cccc(Cl)c1)[C@@H](Cc1ccc(Cl)cc1)c1cccc(C#N)c1 | 
622 | 16 | C[C@H](NS(=O)(=O)c1cc(Cl)c(Cl)cc1Cl)[C@@H](Cc1ccc(Cl)cc1)c1cccc(C#N)c1 | 
1490 | 9.7 | C[C@H](NS(=O)(=O)c1ccccc1)[C@@H](Cc1ccc(Cl)cc1)c1cccc(C#N)c1 | 
454 | 21.7 | C[C@H](NS(=O)(=O)c1ccc(Cl)cc1)[C@@H](Cc1ccc(Cl)cc1)c1cccc(C#N)c1 | 
> 2000 | > 2000 | C[C@H](NS(C)(=O)=O)[C@@H](Cc1ccc(Cl)cc1)c1cccc(C#N)c1 | 
 |  | Cc1c(C(=O)NN2CCCCC2)nn(-c2ccc(Cl)cc2Cl)c1-c1ccc(Cl)cc1 [RIMONABANT] | inhibition in vivo at 3 mg/kg (Rattus norvegicus): 97.9%

SMILES | IC50 (Cannabinoid receptor 2) [nM] | IC50 (Cannabinoid receptor 1 [1]) [nM] | other results
C[C@@H]([C@@H](Cc1ccc(Cl)cc1)c1cccc(C#N)c1)N(C)S(C)(=O)=O | > 2000 | > 2000 | 
C[C@@H]([C@@H](Cc1ccc(Cl)cc1)c1cccc(C#N)c1)N(C)S(=O)(=O)c1cc(Cl)cc(Cl)c1 | > 2000 | > 2000 | 
C[C@H](NS(=O)(=O)c1cccc(-c2ccccc2)c1)[C@@H](Cc1ccc(Cl)cc1)c1cccc(C#N)c1 | 394 | 2.8 | concentration at 0.25 h [2]: 146 nM; concentration at 1 h [3]: 92 nM; Vd [4]: 6.9 L/kg; half-life [5]: 8.4 h; bioavailability [6]: 48%; clearance [7]: 10.6 mL/min/kg; Cmax [8]: 343 nM; concentration at 0.25 h [9]: 220 nM; concentration at 1 h [10]: 113 nM; concentration at 2 h [11]: 54 nM; concentration at 2 h [12]: 54 nM; Kp at 0.25 h [13]: 0.66; Kp at 1 h [14]: 0.82; Kp at 2 h [15]: 1; inhibition in vivo at 3 mg/kg (Rattus norvegicus): 48.9%; IC50 (Cannabinoid receptor 1 [16]): 2.3 nM
